Results as given in patent publication US6008019A, “Plasminogen activator from saliva of the vampire bat” (Schering Aktiengesellschaft, priority 1989, dated 1999).
Read-outs that look alike come from different tables or passages of the source. Where a SMILES comes first, the peptide text is derived from it. [ ]: non-standard residue; d: D form. The star is where a group is joined. pNA = O=[N+]([O-])c1ccc(N*)cc1; pGlu = O=C1CC[C@@H](C(=O)O)N1

Experiments:
[1] = target: T1, t-PA (tissue-type plasminogen activator) (Homo sapiens, UniProt P00750); assay: Km determination of amidolytic chromogenic substrates with t-PA; format: biochemical; conditions: 3 units per hole, 100 mM Tris pH 8.0/100 mM NaCl/0.01% Tween 80, 37° C., Lineweaver-Burk plot
T1 sequence (P00750 36-562): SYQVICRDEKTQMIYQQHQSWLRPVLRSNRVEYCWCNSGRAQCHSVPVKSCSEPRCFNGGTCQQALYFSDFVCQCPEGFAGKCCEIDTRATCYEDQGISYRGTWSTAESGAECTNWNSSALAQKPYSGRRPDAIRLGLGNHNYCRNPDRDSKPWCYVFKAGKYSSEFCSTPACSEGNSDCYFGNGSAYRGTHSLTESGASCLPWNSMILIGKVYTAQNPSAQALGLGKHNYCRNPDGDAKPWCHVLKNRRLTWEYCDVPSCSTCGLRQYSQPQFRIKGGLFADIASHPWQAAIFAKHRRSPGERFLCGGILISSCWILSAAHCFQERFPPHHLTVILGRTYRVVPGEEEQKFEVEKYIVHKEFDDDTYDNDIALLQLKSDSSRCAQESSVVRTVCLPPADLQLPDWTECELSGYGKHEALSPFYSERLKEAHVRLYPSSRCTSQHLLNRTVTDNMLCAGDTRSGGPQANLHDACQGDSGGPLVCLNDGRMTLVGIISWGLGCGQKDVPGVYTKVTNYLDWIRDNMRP
Procedure: (§1) In a 96-hole plate, respectively 90 μl of 100 mM Tris pH 8.0/100 mM NaCl/0.01% "Tween" 80 and 50 μl of the corresponding chromogenic substrate (all from Kabi Vitrum, Stockholm, Sweden) in the final concentrations of 0.03/0.06/0.1/0.3/0.6 and 1 mM are incubated with 10 μl (3 units per hole) of the corresponding plasminogen activator at 37° C., and the thus-released p-nitroaniline is determined photometrically at 405 nm at various points in time between 0-7 hours. The resultant data are evaluated with the aid of a Lineweaver-Burk plot, and the Km value is determined (Segel, I. H., Enzyme Kinetics, John Wiley and Sons, New York). The following chromogenic substrates were utilized:

Urokinase [2] = target: T2, Urokinase (Homo sapiens, UniProt P00749); assay: Km determination of amidolytic chromogenic substrates with urokinase; format: biochemical; conditions: 3 units per hole, 100 mM Tris pH 8.0/100 mM NaCl/0.01% Tween 80, 37° C., Lineweaver-Burk plot
Procedure: as §1

[3] = target: T1, t-PA (tissue-type plasminogen activator); conditions: literature value (Friedberger 1982), read-out: Km (value in parentheses, from the literature); cited from earlier work
Urokinase [4] = target: T2, Urokinase; conditions: literature value (Friedberger 1982), read-out: Km (value in parentheses, from the literature); cited from earlier work

Compound | Km [1] [µM] | Km (Urokinase [2]; read-out: Km) [µM] | Km [3] [µM] | Km (Urokinase [2]) [µM] | Km (Urokinase [4]) [µM]
CC[C@@H](C)[C@@H](N)C(=O)N1CCC[C@H]1C(=O)N[C@@H](CCCNC(=N)N)C(=O)Nc1ccc([N+](=O)[O-])cc1 [S-2288, H-D-Ile-Pro-Arg-pNA] (H-[dI]-Pro-Arg-pNA) | 700 | 400 | 1000 | – | –
N=C(N)NCCC[C@H](NC(=O)CNC(=O)[C@@H]1CCC(=O)N1)C(=O)Nc1ccc([N+](=O)[O-])cc1 [S-2444, <Glu-Gly-Arg-pNA] ([pGlu]-Gly-Arg-pNA) | – | – | – | 100 | 90
